The values below are quoted from earlier work in patent US20090093547A1, “Compositions and Methods for Treating Premature Ejaculation” (Sciele Pharma, Inc., priority 2007, published 2009).

The conditions of the data set: hydrochloride salt crystallized from ethanol and isopropyl ether.

Counter-ions that a name gives are not always drawn.

Take `CCCNC(C)C(=O)Nc1ccccc1C` (stereo not shown) [Prilocalne hydrochloride salt, Prilocalne]: the solubility in water result was “readily soluble”.
